These results are taken from US12070472B2, “Treatment of drug resistant proliferative diseases with telomerase mediated telomere altering compounds” (The Board of Regents of the University of Texas System, priority 2016, dated 2024).

One data set has as its system H1993 cells. Description: Sensitization by 5-azacytidine pretreatment, H1993. In kind it is cell-based, human. Particulars: 500 nM 5-azacytidine for one week. The method, then:
(§1) All three resistant cell lines were pre-treated with 500 nM of the demethylating agent 5-azacytidine for one week. Following the 5-azacytidine pretreatment, each resistant cell line was treated with 9 different concentrations (0.01 to 1000 micromolar) of 6-thio-dG for one week. Cells were then evaluation for growth/death.

For the next data set, the system named is H1819. In words: Sensitization by 5-azacytidine pretreatment, H1819. It is filed as cell-based, human. Particulars: 500 nM 5-azacytidine for one week. The method, then:
as §1

For the next data set, the system named is H1693. In words: Sensitization by 5-azacytidine pretreatment, H1693. In kind it is cell-based, human. Particulars: 500 nM 5-azacytidine for one week. The method, then:
as §1

For the next data set, the system named is HCC2429. In words: GI 50 determination, HCC2429. It is filed as cell-based. The note with it: Homo sapiens. The method, then:
(§2) Cells of each type listed in Table 2 were seeded in chamber slides.

A further data set has as its system HCT116. In words: GI 50 determination, HCT116. It is filed as cell-based. The note with it: Homo sapiens, HCT-116. The method, then: as §2
The test system of the next data set is BJ-hTERT cells. Description: Telomere dysfunction induced foci (TIF) assay in BJ-hTERT cells. Particulars: 10 μM, after 48 hours. It is filed as cell-based, human. The method, then:
(§3) TIFs were quantified using Imaris software.
(§4) Normal BJ cells and […] BJ-hTERT cells were seeded in chamber slides. Following cell attachment, 6-thio-dG (10 μM) and 6-thio-G (10 μM) were added to fresh medium of each cell type. […] A control was used for each cell type as well, where DMSO was added to fresh medium of each cell type. […] These include almost all human cancer cells and certain human diseases involving acute and chronic inflammation.

The test system of the next data set is BJ. In words: GI 50 determination, BJ. In kind it is cell-based. The note with it: Homo sapiens; BJ normal cell line. The method, then: as §2
The next data set relates to H2087. Description: GI 50 determination, H2087. In kind it is cell-based. Particulars: Homo sapiens, NCI-H2087. The method, then: as §2
Another data set has as its system HCC4017. Description: GI 50 determination, HCC4017. The note with it: Homo sapiens. It is filed as cell-based. The method, then:
as §2

Data set [1] deals with A549 human lung cancer cells. In words: Tumor growth in xenograft animal model with A549 cells. It is filed as in vivo, mice. Particulars: 2.5 mg/kg every day. The method, then:
Doses of 2.5 mg/kg of 6-thio-dG and 2.5 mg/kg of 6-thio-G were injected every day into mice after tumor implantation and providing time for tumor initiation. DMSO injections were used for the control. The volume of the tumor was measured.

The test system of the next data set is A549. Description: GI 50 determination, A549. It is filed as cell-based. Particulars: Homo sapiens. The method, then: as §2
The next data set has as its system HCC515. In words: GI 50 determination, HCC515. In kind it is cell-based. Particulars: Homo sapiens. The method, then:
as §2

Another data set relates to HCC15. Description: GI 50 determination, HCC15. It is filed as cell-based. The note with it: Homo sapiens. The method, then:
as §2

A further data set concerns HCT116 cells. The note with it: 1 μM or 10 μM every 3 days, after 10 weeks. The method, then: (§5) For long-term cellular experiments, HCT116 (1,000 cells/cm^2) and BJ (10,000 cells/cm^2) cells were fed with 6-thio-dG (1, 3, 10 μM) containing medium every three days. The cells were counted and replated every week for 10-16 weeks. Additionally, HCT116 cells (1,000 cells/cm^2) were fed with 6-thio-G (1, 3, 10 μM) every three days and each week cells were counted, collected for TRF (Telomere Restriction Fragment) analysis and replated. HCT116 cells, following treatment with 10 μM 6-thio-dG for 12 weeks, were then treated with a combination of 10 μM 6-thio-dG and 3 μM GRN163L for 2-4 weeks.

The next data set concerns BJ fibroblast cells. In words: Telomere length assay (TRF), BJ fibroblasts long-term culture. Particulars: 10 weeks, compared to untreated control. It is filed as cell-based, human. The method, then: as §5
Another data set concerns HCC827. Description: GI 50 determination, HCC827. In kind it is cell-based. The note with it: Homo sapiens. The method, then: as §2
In the next data set the test system is BJ cells. Description: Telomere dysfunction induced foci (TIF) assay in normal BJ cells. In kind it is cell-based, human. Particulars: 10 μM, after 48 hours. The method, then:
as §3, §4

The procedure of data set [2]:
Six WT mice were treated with 1.67 mg of 6-thio-dG/kg of body weight daily. Six WT mice were treated with 1.67 mg of 6-thio-G/kg of body weight daily. Six WT mice were treated with 5 mg of 6-thio-dG/kg of body weight daily. Six WT mice were treated with 5 mg of 6-thio-G/kg of body weight daily. The mice were given the appropriate dosage and weighed daily for 25 days.

A further data set concerns H2882. Description: GI 50 determination, H2882. It is filed as cell-based. The note with it: Homo sapiens, NCI-H2882. The method, then: as §2
Another data set has as its system H2009. Description: GI 50 determination, H2009. It is filed as cell-based. The note with it: Homo sapiens, NCI-H2009. The method, then:
as §2

The target in the next data set is T1, telomerase (Homo sapiens, UniProt O14746).
T1 construct: endogenous in cells; host or cells: HCT116 human colon cancer cells (lysate)
T1 sequence (O14746 whole entry): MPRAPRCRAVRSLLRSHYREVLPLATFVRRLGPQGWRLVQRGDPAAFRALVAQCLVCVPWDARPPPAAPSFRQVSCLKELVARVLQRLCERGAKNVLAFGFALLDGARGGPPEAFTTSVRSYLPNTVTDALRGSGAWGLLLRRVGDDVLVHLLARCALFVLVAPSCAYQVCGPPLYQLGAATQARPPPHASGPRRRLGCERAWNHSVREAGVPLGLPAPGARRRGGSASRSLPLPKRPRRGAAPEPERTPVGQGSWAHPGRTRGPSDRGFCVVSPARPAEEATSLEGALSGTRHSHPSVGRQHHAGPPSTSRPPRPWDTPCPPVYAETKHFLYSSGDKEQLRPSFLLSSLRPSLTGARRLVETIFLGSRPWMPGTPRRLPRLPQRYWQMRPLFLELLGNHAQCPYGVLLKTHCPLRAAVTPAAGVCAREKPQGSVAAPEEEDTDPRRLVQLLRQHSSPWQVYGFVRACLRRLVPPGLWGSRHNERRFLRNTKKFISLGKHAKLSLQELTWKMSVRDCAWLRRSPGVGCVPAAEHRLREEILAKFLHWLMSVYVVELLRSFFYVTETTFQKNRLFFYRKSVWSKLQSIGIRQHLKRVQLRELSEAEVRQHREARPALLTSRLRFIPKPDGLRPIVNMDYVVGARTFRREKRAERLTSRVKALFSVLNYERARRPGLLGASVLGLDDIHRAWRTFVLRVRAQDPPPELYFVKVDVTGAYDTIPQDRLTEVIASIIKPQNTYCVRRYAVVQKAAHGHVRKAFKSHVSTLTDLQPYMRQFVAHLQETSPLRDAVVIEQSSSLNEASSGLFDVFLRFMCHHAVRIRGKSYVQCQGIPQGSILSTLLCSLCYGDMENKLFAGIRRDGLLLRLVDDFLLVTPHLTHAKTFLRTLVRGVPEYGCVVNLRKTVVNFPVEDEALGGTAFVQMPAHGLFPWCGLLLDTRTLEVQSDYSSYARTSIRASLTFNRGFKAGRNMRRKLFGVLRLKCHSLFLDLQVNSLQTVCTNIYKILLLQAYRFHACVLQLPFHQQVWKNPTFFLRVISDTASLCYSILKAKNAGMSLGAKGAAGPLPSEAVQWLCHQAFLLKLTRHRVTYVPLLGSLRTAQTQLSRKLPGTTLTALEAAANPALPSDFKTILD
T1 sequence (O60832 whole entry partner): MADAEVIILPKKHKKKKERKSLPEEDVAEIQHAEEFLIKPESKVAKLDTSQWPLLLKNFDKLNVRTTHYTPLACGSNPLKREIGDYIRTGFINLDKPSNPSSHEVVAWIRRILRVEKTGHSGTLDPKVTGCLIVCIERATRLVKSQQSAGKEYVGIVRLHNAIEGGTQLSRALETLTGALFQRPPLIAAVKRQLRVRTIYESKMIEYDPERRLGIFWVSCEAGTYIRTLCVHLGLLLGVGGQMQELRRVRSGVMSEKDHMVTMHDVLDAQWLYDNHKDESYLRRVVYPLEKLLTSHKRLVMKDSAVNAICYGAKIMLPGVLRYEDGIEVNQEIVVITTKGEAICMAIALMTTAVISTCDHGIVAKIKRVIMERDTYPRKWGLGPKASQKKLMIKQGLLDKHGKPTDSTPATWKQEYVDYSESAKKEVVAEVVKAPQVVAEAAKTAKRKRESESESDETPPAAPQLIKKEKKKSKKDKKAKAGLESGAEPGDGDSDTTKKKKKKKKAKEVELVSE
T1 sequence (Q9NY12 whole entry partner): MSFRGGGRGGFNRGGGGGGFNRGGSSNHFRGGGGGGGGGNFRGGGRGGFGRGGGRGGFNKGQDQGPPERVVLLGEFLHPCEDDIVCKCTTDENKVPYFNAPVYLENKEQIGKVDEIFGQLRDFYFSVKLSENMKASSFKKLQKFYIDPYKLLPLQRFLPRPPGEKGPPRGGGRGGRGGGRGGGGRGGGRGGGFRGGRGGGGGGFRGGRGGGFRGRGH
T1 sequence (Q9NX24 whole entry partner): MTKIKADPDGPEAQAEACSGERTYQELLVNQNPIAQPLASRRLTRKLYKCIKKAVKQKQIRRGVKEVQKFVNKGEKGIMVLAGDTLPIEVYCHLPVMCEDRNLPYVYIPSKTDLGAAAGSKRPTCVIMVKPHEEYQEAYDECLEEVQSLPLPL
T1 sequence (Q9NPE3 whole entry partner): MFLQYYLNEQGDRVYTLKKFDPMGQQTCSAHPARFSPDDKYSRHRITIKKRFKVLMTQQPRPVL
T1 sequence (Q9BUR4 whole entry partner): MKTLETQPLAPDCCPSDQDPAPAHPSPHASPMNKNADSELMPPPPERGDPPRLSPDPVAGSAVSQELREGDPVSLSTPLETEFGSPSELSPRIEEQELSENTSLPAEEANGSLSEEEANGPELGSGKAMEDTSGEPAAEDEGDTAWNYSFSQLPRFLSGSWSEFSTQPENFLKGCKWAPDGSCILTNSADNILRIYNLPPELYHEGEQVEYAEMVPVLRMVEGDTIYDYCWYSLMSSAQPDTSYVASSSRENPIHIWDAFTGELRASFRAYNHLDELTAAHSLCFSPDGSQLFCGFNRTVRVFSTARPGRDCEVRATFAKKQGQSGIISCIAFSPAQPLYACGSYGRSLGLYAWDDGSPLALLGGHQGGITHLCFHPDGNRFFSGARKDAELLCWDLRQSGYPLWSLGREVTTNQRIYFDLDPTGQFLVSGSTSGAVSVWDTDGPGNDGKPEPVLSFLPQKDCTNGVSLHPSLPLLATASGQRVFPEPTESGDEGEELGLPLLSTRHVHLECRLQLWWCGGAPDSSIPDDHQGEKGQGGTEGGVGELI
Description: Telomerase activity by TRAP assay in treated HCT116 cells. In kind it is cell-based. Particulars: HCT116 cells treated with 1 and 10 μM every 3 days for 12 weeks. The method, then:
Telomerase activity was measured by the TRAP assay (Telomeric Repeat Amplification Protocol as described in Shay J. W. and Bacchetti S., “A survey of telomerase activity in human cancer,” European Journal of Cancer 1997; 33:787-91.). Briefly, HCT116 cells were treated with 1 or 10 μM 6-thio-dG for 1-12 weeks. 1×10^5 cells were collected and lysed with ice-cold NP-40 lysis buffer (10 mM Tris-HCl pH 8.0, 1.0 mM MgCl2, 1 mM EDTA, 1% NP-40, 0.25 mM sodium deoxycholate, 10% glycerol, 150 mM NaCl, 5 mM β-mercaptoethanol) for 30 min. One microliter cellular lysate for 2500 cells was used for each reaction. Hela cells were used as a positive control and lysis buffer was used as a negative control. Samples were prepared and then the telomerase extension products were amplified using PCR (95° C. for 5 min to inactivate telomerase, then 95° C. for 30 sec, 52° C. for 30 sec, 72° C. for 30 sec; 24 cycles). Samples were run on a 10% non-denaturating acrylamide gel and visualized using a Typhoon PhosphorImager scanner system (Molecular Dynamics, GE Healthcare, Piscataway, NJ) that is capable of reading Cy5 fluorescence.

On to `Nc1ncn([C@@H]2O[C@H](CO)[C@@H](O)[C@H]2O)c(=O)n1` [5-azacytidine], for which the “effect of pretreatment on sensitivity to 6-thio-dG” value in the data set on H1993 cells is on record as “did increase sensitivity of the H1993 cells substantially”; in the data set with H1819, “no effect on the sensitivity”; in the data set on H1693, “no effect on the sensitivity”.

For `Nc1nc2nc[nH]c2c(=S)[nH]1` [6-thio-G, 6-thioguanine, reference compound], the GI50 (in general, the concentration at which growth is held to half of that of the control) in the data set on HCC2429 is 700 nM; in the data set on HCT116, 1200 nM; with BJ it was greater than 100 µM; in the data set with H2087 it was 900 nM; in the data set on HCC4017, 2000 nM; in the data set on A549 it was 2300 nM. Also, the GI50 in the data set on HCC515 came to 4.9 µM; with HCC15 it was 1100 nM; in the data set on HCC827, 1700 nM; in the data set on H2882, 600 nM; in the data set with H2009, 3.3 µM. Moreover, the “>4 TIFs per nucleus background subtracted” value in the data set on BJ-hTERT cells and with BJ cells was 0 in each case. Moreover, in data set [1], the “histology of residual tumors” value is reported as “mostly “healthy” growing cancerous cells”. In addition, in the data set on HCT116 cells, the “effect on telomere length (TRF)” value is reported as “did not result in any significant effects on telomere length”. For the same compound, in the data set on BJ fibroblast cells, the “telomere shortening (TRF)” value was “did not show enhanced telomere shortening”. Besides, in [2] (WT mice, 5 mg/kg daily), the mortality entry is on record as “all mice died by the 15th day”. The weight loss entry in [2] (mouse, in vivo, 5 mg/kg) is listed as “around 2 grams”. Besides, the “inhibition of telomerase activity (TRAP)” value at telomerase is listed as “no inhibition of telomerase activity was observed”.
